“And” between values parts separate entries of the source, which are not always exact repeats. Identical values can stand only once. Like-named read-outs stand apart in the source and are kept apart here. Marks after values point to notes of the source that are not given here.
Tests used:
[1] = for ln K: Tricine pH 8.5, 25° C.
Protocol: The titrations were performed on a NanoITC (TA Instruments, New Castle, Del.) with gold cells with a cell volume of 1 mL. ITC experiments were carried out at 25° C. and the stirring speed was 250 rpm. For the single independent binding experiment, ligand of 20 mM in 100 μL syringe and for the competitive binding site and two independent binding sites model, ligand of 10 mM in 250 μL syringe were used. The injection rate was varied 1.7-10 μL/min for the continuous injection mode under setting tab in ITCRun software. […] The first data point for the incremental injection mode and data for the initial 10 μL of injection for the continuous injection mode is excluded for data fitting with binding models due to reduced amount of the heat flow.
Binding of Ba^2+ and EDTA were performed and analyzed with the single independent binding site model in order to obtain the confidence intervals depending on the number of injections.
The number of injections for the incremental injection experiment was 36 with an injection volume of 2.5 μL. An injection rate of 1.7 μL/min was utilized in the continuous injection experiment. The fit for the continuous injection method was done after 0.1 mM of ligand had been injected.
The experimental time for incremental injection mode experiment was ˜6.5 h (36 injections), while the continuous injection experiment completed within ˜1 h.

[2] = Tricine pH 8.5, 25° C.; for ln K1 / ln K2: EDTA/DPTA mixture, 99% CI in parentheses; for ln K: real-time evaluation from data at inflection points, continuous 7.2 μL/min
Protocol: The pH of these solutions was adjusted to 8.5 with 1 M NaOH solution. For the single independent binding site and two independent binding sites experiments, Tricine (20 mM) was used as a buffer solution. For the competitive binding site experiment, HEPES (20 mM) was used as a buffer solution.
The titrations were performed on a NanoITC (TA Instruments, New Castle, Del.) with gold cells with a cell volume of 1 mL. ITC experiments were carried out at 25° C. and the stirring speed was 250 rpm. For the single independent binding experiment, ligand of 20 mM in 100 μL syringe and for the competitive binding site and two independent binding sites model, ligand of 10 mM in 250 μL syringe were used. The injection rate was varied 1.7-10 μL/min for the continuous injection mode under setting tab in ITCRun software. During the equilibration, mass transfer of ligand at the tip of the injection syringe reduces the integrated heat of the first injection. The first data point for the incremental injection mode and data for the initial 10 μL of injection for the continuous injection mode is excluded for data fitting with binding models due to reduced amount of the heat flow.
By changing the concentration of EDTA and DPTA in the mixture, the various binding stoichiometry of the receptor, n and m, were simulated. […] The number of injections for the incremental injection mode experiment is 40 with an injection volume of 6 μL. Injection rate for the continuous injection mode is 7.2 μL/min.
The fit for the continuous injection method was done after 0.05 mM of ligand was injected. […] The positive peaks of the binding isotherms in the raw data (top) represent the exothermic heat of binding.

[3] = 1 mM EDTA + 4 mM BaCl2, HEPES pH 8.5, 25° C.
Protocol: The pH of these solutions was adjusted to 8.5 with 1 M NaOH solution. […] For the competitive binding site experiment, HEPES (20 mM) was used as a buffer solution.
Injection rate for the continuous injection mode is 10 μL/min.
The fit for the continuous injection method was done after 0.1 mM of ligand was injected. […] The positive peaks of the binding isotherms in the raw data (top) represent the exothermic heat of binding.

avidin [4] = target: T1, avidin (Gallus gallus, UniProt P02701); assay: Continuous injection ITC, single independent binding of lipoic acid to avidin; details: 1 mM lipoic acid, continuous 0.1 mL/h into 25 μM avidin, 25° C., pH 6.6
T1 construct: purchased Sigma-Aldrich
T1 sequence (P02701 25-152): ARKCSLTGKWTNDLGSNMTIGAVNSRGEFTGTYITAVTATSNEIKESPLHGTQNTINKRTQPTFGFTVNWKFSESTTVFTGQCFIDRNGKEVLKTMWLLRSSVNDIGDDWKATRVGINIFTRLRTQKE
Protocol: (§1) The molecular weight of avidin (12.8 units per mg protein) was used as 66000 g/mol. […] […] HEPES (1 mM) was used as the buffer solution.
(§2) The continuous titrations were performed on a VP-ITC (Malvern Instruments, Westborough, Mass.) with a cell volume of 1.4 mL. The incremental titrations were performed on a NanoITC (TA Instruments, Lindon, Utah) with a cell volume of 1 mL. ITC experiments were carried out at 25° C. and the stirring speed was 270 rpm and 250 rpm for the continuous titration and incremental titration, respectively. For manipulating injection rate, a PHD 2000 syringe pump (Harvard Apparatus, Holliston, Mass.) was connected to the injection syringe of the VP-ITC.
Injection rate for the continuous injection mode was 0.1 mL/h. The fit for the continuous injection method was done after 12 μM of ligand was injected. […] Injection rate for the continuous injection mode is 0.1 mL/h. The fit for the continuous injection method was done after […] of ligand was injected.

avidin [5] = target: T1, avidin; details: reported; pH 6.8; cited from earlier work
avidin [6] = target: T1, avidin; assay: Continuous injection ITC, binding of desthiobiotin to avidin, single independent binding site model; details: 0.5 mM desthiobiotin, continuous 25 μL/h into 12.5 μM avidin, 25° C., pH 7.2
Protocol: as §1, §2

avidin [7] = target: T1, avidin; assay: Continuous injection ITC, competitive binding of desthiobiotin to avidin mixed with lipoic acid; details: pH 6.6
Protocol: as §1, §2
[…] The fit for the continuous injection method was done after 12 μM of ligand was injected. […] […] The fit for the continuous injection method was done after […] of ligand was injected.

[8] = continuous injection 7.2 μL/min
[9] = incremental, 40 injections of 6 μL
[10] = apparent, 12.5 μM avidin mixed with 0.75 mM lipoic acid, 25° C.

With `[Ba+2].[Cl-].[Cl-]` [BaCl2, barium chloride] the K2 ([1]; Ba^2+ and EDTA, obtained independently by incremental injection, input for the competitive model, listed as Ba^2+) was 1.36e+06 M⁻¹, the “ln K” value ([1]; continuous injection 1.7 μL/min, 99% confidence interval in parentheses) was 14.15 (14.13, 14.16) and 14.11 (14.09, 14.03) and 13.73 (13.71, 13.75) and the “ln K” value ([1]; incremental injection, 9 injections, 99% confidence interval in parentheses) was 14.26 (13.5, 16.7) and 14.14 (13.0, 16.5) and 13.99 (13.4, 14.6). For the same molecule, the “ln K” value ([1]; incremental injection, 18 injections, 99% confidence interval in parentheses) was 14.07 (13.6, 14.6) and 14.05 (13.8, 14.5) and 13.88 (13.3, 14.8), the “ln K” value ([1]; incremental injection, 36 injections, 99% confidence interval in parentheses) was 14.07 (13.8, 14.4) and 14.13 (13.9, 14.4) and 14.02 (13.8, 14.3) and the “ln K” value ([1]; real-time evaluation from data at inflection point, continuous injection 1.7 μL/min) was 14.22.
In the case of `O.O.O.O.O=[N+]([O-])[O-].O=[N+]([O-])[O-].[Ca+2]` [Ca(NO3)2, Calcium nitrate tetrahydrate], the “ln K1” value [2, 8] is reported as 18.11 (18.07, 18.15), the “ln K2” value [2, 8] is reported as 11.27 (11.25, 11.30) and the “ln K1” value [2, 9] is reported as 19.50 (18.98, 20.33). The “ln K2” value [2, 9] was 11.42 (11.14, 11.69), the “ln K” value ([2]; association of Ca^2+ and DPTA) was 12.24^g and the “ln K” value ([2]; association of Ca^2+ and EDTA) was 18.98^f. The “ln K” value ([3]; continuous injection 10 μL/min, 99% CI in parentheses) was 20.535 (20.52, 20.55), the “ln K” value ([3]; incremental, 20 injections of 10 μL, 99% CI in parentheses) was 20.47 (20.3, 20.6) and the “ln K” value ([3]; real-time evaluation from data at inflection point, continuous injection 10 μL/min) was 20.64.
In the case of `O=C(O)CCCCC1CCSS1` (stereo not drawn) [Lipoic acid, α-Lipoic acid], the ΔH1 (avidin [4]) is given as -9.95 kcal/mol, the Kd (avidin [4]; read-out: Kd1) is given as 520 nM and the Kd (avidin [5]) is given as 700 nM.
With `C[C@@H]1NC(=O)N[C@@H]1CCCCCC(=O)O` [desthiobiotin, d-desthiobiotin] the ΔH (avidin [6]) was -17.55 kcal/mol, the m (avidin [7]; 0.5 mM desthiobiotin, 25 μL/h into 12.5 μM avidin mixed with 0.75 mM lipoic acid, 25° C.) was 0.294 and the “Kd,app” value (avidin [7]; [10]) was 1.04 nM. The ΔHapp (avidin [7]; [10]) was -9.74 kcal/mol and the ΔH (avidin [7]; evaluated by competitive binding method from lipoic acid and apparent parameters) was -19.7 kcal/mol.
